# Test results reported in article PMC3625590, “NBM-T-L-BMX-OS01, Semisynthesized from Osthole, Is a Novel Inhibitor of Histone Deacetylase and Enhances Learning and Memory in Rats” (Evidence-based Complementary and Alternative Medicine : eCAM, 2013).
# Where a name gives a salt, the structure may show the parent alone.
# Legend:
# [1] = tested on: Sco-induced amnesia rats; experiment: Novel object recognition, Sco-induced memory impairment; assay type: in vivo, Sprague-Dawley rats; details: Sco 1.5 mg/kg/d; BMX or SAHA 5 mg/kg/d i.p.; 8 h
# Method: SAHA was supplied by NatureWise Biotech and Medicals Corporation (Taipei, Taiwan). […] (St. Louis, MO, USA). The BMX and SAHA stock (100 mg/mL) was dissolved in DMSO and diluted with saline to a final concentration of 0.5 mg/mL (in 0.5% DMSO/saline). […] SD rats were randomly divided into 3 groups. For the naïve animal experiments, the BMX-injected or SAHA-injected groups were injected with BMX (5 mg/kg/d) or SAHA (5 mg/kg/d) intraperitoneally 7 d prior to behavioral experiments and during the experimentation. The control group received the 0.5% DMSO/saline injection. The injection volume was 10 μL/g of body weight. The injections were performed once per day. For the amnesia experiment, the protocol was adopted from previous studies with modifications. […] The control group received the 0.5% DMSO/saline injection. The injection volume was 10 μL/g of body weight. […] The method used was adopted from that of a previous study with modifications. During familiarization, rats were allowed to explore 2 identical objects in an open field box (90 × 70 × 60 cm) for 5 min. The criteria used for exploration were a distance less than 1.5 cm between the rat and the object or direct contact with the object. […] The time that each rat spent exploring the 2 objects during a 5 min period was recorded. […]
# [2] = tested on: Sco-induced amnesia rats; experiment: Water-maze learning, Sco-induced memory impairment; assay type: in vivo, Sprague-Dawley rats; details: Sco 1.5 mg/kg/d; BMX or SAHA 5 mg/kg/d i.p.
# Method: SAHA was supplied by NatureWise Biotech and Medicals Corporation (Taipei, Taiwan). […] (St. Louis, MO, USA). The BMX and SAHA stock (100 mg/mL) was dissolved in DMSO and diluted with saline to a final concentration of 0.5 mg/mL (in 0.5% DMSO/saline). […] SD rats were randomly divided into 3 groups. For the naïve animal experiments, the BMX-injected or SAHA-injected groups were injected with BMX (5 mg/kg/d) or SAHA (5 mg/kg/d) intraperitoneally 7 d prior to behavioral experiments and during the experimentation. The control group received the 0.5% DMSO/saline injection. The injection volume was 10 μL/g of body weight. The injections were performed once per day. For the amnesia experiment, the protocol was adopted from previous studies with modifications. […] The control group received the 0.5% DMSO/saline injection. The injection volume was 10 μL/g of body weight. […] The method was adopted from that of a previous study with modifications. A plastic circular pool 2.0 m in diameter and 0.6 m in height was filled with water (25 ± 2°C) to a depth of 20 cm. A circular platform (8 cm in diameter) was placed at a specific location from the edge of the pool and submerged 2-3 cm below the water surface. Water was made cloudy by adding toxic-free dye. Distinctive visual cues were set on the wall. For spatial learning, animals were subjected to 3 trials per day, with one trial early in the morning, one trial at noon, and another in the late afternoon. The training procedure lasted 4 days, and a total of 12 trials were given. This procedure was adopted because spaced training is a better paradigm to facilitate memory consolidation. For these trials, the rats were positioned at different starting points spaced equally around the perimeter of the pool in random order. They had 120 s to find the hidden platform. If a rat could not find the platform, it was guided to the platform and was allowed to remain there for 20 s. The time each animal took to reach the platform was recorded as the escape latency. A probe trial of 120 s was given on day 5 to test their memory retention. The rats were placed in the pool with the platform removed, and the time they spent in each quadrant (Quadrants 1, 2, 3, and 4) was recorded. Quadrant 4 is the target quadrant. For the trained and swimming control experiments, rats in the trained group were subjected to the regular water maze learning procedure. At the end of the experiment, the rats were subjected to visible platform learning. For visible platform learning, a flag was mounted on the platform, and the platform was raised 2.5 cm above the surface of the water. In addition, the dye had not been added, so that the animals could see the location of the platform from the water. […]
smiles,measurement,setting,value
"CN1[C@@H]2C[C@@H](OC(=O)[C@H](CO)c3ccccc3)C[C@H]1[C@@H]1O[C@@H]12 [Sco, Scopolamine hydrochloride]",exploratory preference for the novel object (NO),[1],showed no exploratory preference for the NO
same,escape latency in finding the hidden platform,[2],showed longer escape latency
same,"probe trial, time spent in target quadrant",[2],spent less time in the quadrant where the platform had been placed
